Source: patent publication US20190209548A1, “LINKED DIARYL COMPOUNDS WITH ANTICANCER PROPERTIES AND METHODS OF USING THE SAME” (University of Maryland, College Park, priority 2014, published 2019)

Legend:
[1] = system: hTel22; assay: ESI mass spectrometry of hTel22 with excess ligand; type: binding, human; conditions: free DNA present even in excess ligand
Method: Electrospray Ionization Mass Spectrometry. ESI-MS experiments were carried out on a Bruker MicrOTOFQ mass spectrometer. Data acquisition was set to operate in negative ion mode. All experiments were performed in 50 mM ammonium acetate buffer containing 20% HPLC grade methanol and adjusted with 1 N KOH solution to reach pH of 7.0. The WT hTel 22-mer G-quadruplex sample was prepared at a concentration of approximately 10 μM in the ammonium acetate buffer and was exhaustedly dialyzed. Stock solutions of DMZ and Triazene-1 were prepared in the final dialysate buffer at concentration as high as 300 μM. The ESI-MS samples were prepared by mixing the DNA and ligand stock solutions to yield a mixture containing excess of each ligand per equivalence of DNA. The MS capillary voltage was set to +3500 V, dry N2 gas flow was adjusted to 0.5 L/min at 110° C., and the G-quadruplex/ligand samples were directly infused into the MS by using a kD Scientific syringe pump set to a flow rate of 200 μL/hour. Data processing was performed by using Bruker Daltonics Data Analysis program.

[2] = system: c-MYC G-quadruplex; assay: FRET melting in competition with duplex DNA; type: binding; conditions: 1 μM ligand, 0.2 μM c-MYC, up to 500 equivalence of double-stranded DNA
Method: FRET DNA melting in competition with duplex DNA. FRET competition assay was performed by adding 2 μM, 20 μM and 100 μM double-stranded competitor 26ds DNA (5′-CAATCGGATCGAATTCGATCCGATTG-3′) (SEQ ID NO: 16) in the presence of 0.2 μM c-MYC G-quadruplex and 1 μM DMZ analogs. Both c-MYC G-quadruplex and 26ds DNA were diluted in 60 mM potassium cacodylate buffer (pH 7.2) and then annealed by heating at 85° C. for 10 min followed by cooling to room temperature in the heating block. Experiments were performed in triplicate.

[3] = system: c-MYC protein in MDA-MB-231 cells; assay: Western Blot of c-MYC protein expression; type: cell-based, human; conditions: 5.45 or 27.25 μM, 2, 6 or 24 hours
Method: FIG. 7. Western Blot analysis of c-MYC protein expression in MDA-MB-231 after treated with TMPyP4 and DMZ9. A, MDA-MB-231 cells were treated with DMSO vehicle, DMZ9 (5.45 […] and 27.25 μM), TMPyP4 (22.3 μM and 111.5 μM) for 2 h, 6 h and 24 h. Total protein was extracted and analyzed by Western Blot with 1:1,000 C-MYC (Cell Signaling) and 1:10,000 HRP-linked anti-rabbit IgG (Cell Signaling). * Observed high level of cytotoxicity and low protein levels. B and C, the graphs show the relative density as compared with the DMSO vehicle. Scanned images were analyzed using image J software.
Western Blot Analysis of c-MYC Protein Expression. C-MYC protein levels in MDA-MB-231 cells were evaluated by performing Western Blot. MDA-MB-231 breast cancer cells were treated with 22.3 or 111.5 μM TMPyP4 and 5.45 or 27.25 μM DMZ9 for 2, 6 or 24 hours.

[4] = system: 7bp HP; assay: ITC titration with 7 bp hairpin without A2T2; type: binding; conditions: 20 mM Tris, 100 mM KCl, pH 7.2
Method: Isothermal titration calorimetry. ITC experiments were performed using a VP-ITC calorimeter (GE-Healthcare). A typical ITC experiment involved as many as addition of 28 (10 μL) injections of as high as 1 mM ligand solutions into ˜1.5 mL of a dilute DNA solution (10 μM). Corrected titration curves were achieved by subtracting the blank titration data from the ITC-data for the ligand-DNA titrations. Corrected ITC titrations were fit with a nonlinear regression algorithm again using the CHASM ITC data analysis program developed in our laboratory.
DNA stock solutions were prepared by reconstituting the lyophilized oligonucleotide into 20 mM Tris buffer with a salt concentration of 100 mM KCl and a pH of 7.2. Approximately 2 mL of the oligonucleotide was dialyzed (1000 Mw cutoff membrane) against three changes of buffer solution (1 L, 24 h each) at 4° C. The concentrations of stock DNA solutions were verified using UV-Vis. G-Quadruplex DNAs were annealed by quickly heating to sample to 100° C., holding at 100° C. for ten minutes then slowly cooling to 5° C. over three hours period. Molar extinction coefficient of the DNAs were determined using a nearest-neighbor method for single stranded DNA. The extinction coefficients at 260 nm for the WT 27-mer bcl-2, WT 24-mer c-myc, WT 22-mer human telomere hTel sequences are 267,200 M^−1cm^−1, 248,100 M^−1cm^−1, and 228,500 M^−1cm^−1 respectively. […]

[5] = system: c-kit1; assay: NMM displacement assay; type: binding; conditions: NMM 1 μM, ligand 0-200 μM
Method: Displacement assays with the G-quadruplex binder, NMM. In these assays, the triazene ligand was used at various concentrations: 0, 5, 10, 20, 50, 100, and 200 μM; and the DNA concentration was kept at 1 μM, whereas the concentration of NMM was 1 μM. The experiments were performed in 50 mM Tris-HCl buffer (pH 7.5) in the presence of 50 mM KCl. The excitation wavelength used for NMM was 400 nm and the emission was monitored between 550 and 700 nm (slit width=5 nm, scan speed=600 nm/min, averaging time=0.1 sec, data interval=1 nm, PMT detector voltage=600 V, measurement temperature=20° C.). The sample was initially heated to 95° C. and kept at this temperature for 5 min without ligand or NMM and then cooled down to room temperature for 15 min. Subsequently, the triazene ligand was added to the DNA and incubated for ˜12 h.

[6] = system: 27mer WT bcl-2; assay: CD titration with bcl-2 G-quadruplex; type: binding; conditions: K+ Tris buffer
Method: (§1) Circular Dichroism (CD). CD titration experiments were performed with an Olis DSM-20 spectropolarimeter (Bogart, Ga.). All measurements were done at 25° C. using a 1 cm quartz cuvette and covering a spectral range of 220-420 nm. […] Stock solutions of the ligand were added in small amount to reach a molar ratio of 1:1, 3:1, 6:1, and 10:1 of ligand per equivalence of DNA.

[7] = system: hTel22; assay: CD titration with hTel22; type: binding, human; conditions: K+ Tris buffer
Method: as §1

[8] = system: B-DNAs containing the AT rich sequence; conditions: measured by NMR, Jenkins et al.; cited from earlier work

Question: Which “binding affinity in words” value [1] does the source give for `N=C(N)c1ccc(NN=Nc2ccccc2)cc1` [DMZ1] here?
Answer: low binding affinity

Question: What about the “effect of competitor double-stranded DNA on Tm of c-MYC” value [2] of the same compound?
Answer: did not affect the Tm of c-MYC

Question: For `N=C(N)c1ccc(N=NNc2cccc(C#Cc3ccc(F)cc3)c2)cc1` [DMZ9], which c-MYC protein expression [3] is on record?
Answer: caused a decrease in the c-MYC protein expression

Question: For `N=C(N)c1ccc(/N=N/Nc2ccc(C(=N)N)cc2)cc1` [DMZ, Diminazene aceturate, reference compound], which K2 [4] is on record?
Answer: 18000 M⁻¹

Question: And the “competition with NMM for c-kit1 binding” value [5]?
Answer: could indeed compete with NMM for c-kit1 binding

Question: What about the “CD signal of G-quadruplex upon complexation” value [6] of the same compound?
Answer: dramatically decreased

Question: What about the “effect on structure of G-quadruplex (CD)” value [7] of the same compound?
Answer: very little effect on the structure

Question: And the “Kavg, binding affinity” value [8]?
Answer: ≈ 1×10^6 M^−1
